From US20200397795A1, “PROPHYLACTIC TREATMENT OF VENOUS THROMBOEMBOLISM” (JANSSEN PHARMACEUTICALS, INC., priority 2019, published 2020)

Test system: venous thromboembolism (VTE) in patients hospitalized for acute medical illness
Experiment: MAGELLAN (Study 1): efficacy of oral rivaroxaban 10 mg OD 35 days vs sc enoxaparin 40 mg OD 10 days then placebo
Format: in vivo
Method: The objective of Study 1 (MAGELLAN or MAGELLAN Study) was to compare efficacy and safety of venous thromboembolism (VTE) prophylaxis with oral rivaroxaban 10 mg once daily administered for 35±4 days (hereafter referred to as 35 days or Day 35) to subcutaneous enoxaparin 40 mg once daily (OD) administered for 10±4 days (hereafter referred to as 10 days or Day 10) in men and women aged 40 years or above, who have been hospitalized for a medical illness.
Diagnosis and main criteria for inclusion in Study 1 was men and women 40 years or above and at risk for VTE being hospitalized for acute medical illness conditions, including: heart failure (New York Heart Association [NYHA] class III or IV); active cancer (e.g., admitted for chemotherapy or for the treatment of a complication of active cancer); acute ischemic stroke; acute infectious and inflammatory diseases, including acute rheumatic diseases; and acute respiratory insufficiency. Also at least one additional risk factor for VTE, including: severe varicosis (varicosities); chronic venous insufficiency; history of cancer; history of deep vein thrombosis (DVT) or pulmonary embolism (PE); history of heart failure (NYHA class III or IV); thrombophilia (hereditary or acquired); recent major surgery (6-12 weeks); recent serious trauma (6-12 weeks); hormone replacement therapy; advanced age greater than or equal to 75 years; morbid obesity (body mass index (BMI) 35 kg/m^2 or higher); and acute infectious disease contributing to hospitalization.
The study was conducted in a prospective, randomized, double-blind, double dummy, active comparator-controlled, multicenter and multinational design. There were 8101 subjects were randomized at 556 study centers in 52 countries to one of the two treatment groups. Of the 8101 randomized subjects, 4050 were randomized to active rivaroxaban and 4051 were randomized to active enoxaparin.
Primary Endpoints: The primary efficacy variable was a composite of the number of events of: asymptomatic proximal DVT in lower extremity detected by mandatory bilateral lower extremity venous ultrasonography; symptomatic DVT in lower extremity, proximal or distal; symptomatic, non-fatal PE; and VTE-related death defined as either a well-documented fatal PE, or sudden death with no other plausible explanation. The two primary efficacy endpoints were (i) test of superiority at Day 35 (Days 29-41, inclusive) and (ii) test of non-inferiority at Day 10 (Days 6-15, inclusive).
Secondary Endpoints: The first major secondary efficacy endpoint was defined as a composite of the test of superiority at Day 35 with component of VTE-related death substituted by all-cause mortality, up to Day 35. The second major efficacy secondary efficacy endpoint was the test for superiority at Day 10 using the same composite endpoint as the Day 10 non-inferiority test.
For both primary efficacy endpoints, the relative risk ratio (rivaroxaban/enoxaparin) with respect to the incidences of the primary efficacy endpoint was estimated based on a stratified estimator using Mantel-Haenszel weights (based on sample sizes by geographic region). The corresponding asymptotic 2-sided 95% confidence interval based on the approximation to the normal distribution was determined. Sensitivity analyses were performed for the primary efficacy endpoints.
The primary efficacy variable was a composite of the number of events of (1) asymptomatic proximal DVT in lower extremity detected by mandatory bilateral lower extremity venous ultrasonography; (2) symptomatic DVT in lower extremity, proximal or distal; (3) symptomatic, nonfatal PE; and (4) VTE-related death. […]

[1] = Day 10 + 5, PP Day 10 plus major and clinically relevant bleeds
[2] = Day 10 + 5, per protocol Day 10 analysis set
[3] = Day 10 + 5 up to Day 35 + 6, mITT (Day 10 to Day 35) analysis set
[4] = Day 10 + 5 up to Day 35 + 6, mITT (Day 10 to Day 35) analysis set, listed as rivaroxaban
[5] = Day 35 + 6, mITT Day 35 analysis set
[6] = Day 35 + 6, mITT Day 35 analysis set, listed as rivaroxaban
[7] = Day 35 + 6, mITT Day 35 plus major and clinically relevant bleeds
[8] = Day 35, mITT Day 35 analysis set
[9] = rivaroxaban-placebo phase (Day 10 to Day 35), mITT (Day 10 to Day 35)

O=C(NC[C@H]1CN(c2ccc(N3CCOCC3=O)cc2)C(=O)O1)c1ccc(Cl)s1 [Rivaroxaban, 5-chloro-N-({(5S)-2-oxo-3-[4-(3-oxo-4-morpholinyl)phenyl]-1,3,oxazolidin-5-yl}methyl)-2-thiophenecarboxamide]
Major vascular events (CV death, acute myocardial infarction, or acute ischemic stroke), incidence (Day 10): 1.0%
Symptomatic VTE excluding VTE-related death, incidence (Day 10): 0.5%
Symptomatic VTE including death, incidence (Day 10): 0.7%
Net clinical benefit component: asymptomatic lower proximal deep vein thrombosis [1]: 71 (2.4%)
Net clinical benefit component: clinically relevant non-major bleeding [1]: 51 (1.7%)
Net clinical benefit component: death (pulmonary embolism) [1]: 3 (0.1%)
Net clinical benefit component: major bleeding [1]: 9 (0.3%)
Net clinical benefit component: symptomatic deep vein thrombosis in lower extremity [1]: 7 (0.2%)
Net clinical benefit component: symptomatic non-fatal pulmonary embolism [1]: 6 (0.2%)
Net clinical benefit component: venous thromboembolism related death [1]: 3 (0.1%)
Net clinical benefit, any event, incidence [1]: 134 (4.5%)
Net clinical benefit, any event, incidence (Day 10 + 5, PP Day 10 plus major and clinically relevant bleeds, listed as rivaroxaban): 4.5%
Asymptomatic proximal deep vein thrombosis in lower extremity, incidence [2]: 71 (2.4%)
Death (pulmonary embolism cannot be excluded), incidence [2]: 3 (0.1%)
Primary efficacy composite, any event, incidence [2]: 78 (2.7%)
Symptomatic deep vein thrombosis in lower extremity, incidence [2]: 7 (0.2%)
Venous thromboembolism related death, incidence [2]: 3 (0.1%)
Primary efficacy composite, any event, incidence (Day 10 + 5, per protocol Day 10 analysis set, listed as rivaroxaban): 2.7%
Asymptomatic proximal deep vein thrombosis in lower extremity, incidence [3]: 81 (2.1%)
Death (pulmonary embolism cannot be excluded), incidence [3]: 8 (0.3%)
Death (pulmonary embolism), incidence [3]: 1 (<0.1%)
Symptomatic deep vein thrombosis in lower extremity, incidence [3]: 3 (0.1%)
Symptomatic non-fatal pulmonary embolism, incidence [3]: 1 (<0.1%)
Venous thromboembolism related death, incidence [3]: 9 (0.3%)
Primary efficacy composite, any event, incidence (Day 10 + 5 up to Day 35 + 6, mITT (Day 10 to Day 35) analysis set, rivaroxaban-placebo phase): 72 (2.5%)
Primary efficacy composite, any event, incidence (Day 10 + 5 up to Day 35 + 6, mITT (Day 10 to Day 35) analysis set, rivaroxaban-placebo phase, listed as rivaroxaban): 2.5%
Asymptomatic proximal deep vein thrombosis in lower extremity, incidence [4]: 2.1%
Venous thromboembolism related death, incidence [4]: 0.3%
Relative risk (rivaroxaban/enoxaparin), primary efficacy composite (Day 10, PP Day 10 analysis set): 0.968
Relative risk reduction, primary efficacy composite (Day 10, PP Day 10 analysis set): 3.25%
Relative risk vs enoxaparin, subgroup (Day 10 PP, active cancer): 2.500
Relative risk vs enoxaparin, subgroup (Day 10 PP, age subgroup 65 to <75 years): 1.88
Relative risk vs enoxaparin, subgroup (Day 10 PP, complete immobilization >6 days post randomization): 0.671
Relative risk vs enoxaparin, subgroup (Day 10 PP, complete immobilization post randomization 4-6 days): 1.75
Major vascular events, incidence (Day 35): 1.8%
Symptomatic VTE excluding VTE-related death, incidence (Day 35): 0.6%
Symptomatic VTE including death, incidence (Day 35): 1.0%
Asymptomatic proximal deep vein thrombosis in lower extremity, incidence [5]: 103 (3.5%)
Death (pulmonary embolism cannot be excluded), incidence [5]: 18 (0.6%)
Death (pulmonary embolism), incidence [5]: 1 (<0.1%)
Primary efficacy composite, any event, incidence [5]: 131 (4.4%)
Symptomatic deep vein thrombosis in lower extremity, incidence [5]: 13 (0.4%)
Symptomatic non-fatal pulmonary embolism, incidence [5]: 10 (0.3%)
Venous thromboembolism related death, incidence [5]: 19 (0.6%)
Asymptomatic proximal deep vein thrombosis in lower extremity, incidence [6]: 3.5%
Primary efficacy composite, any event, incidence [6]: 4.4%
Venous thromboembolism related death, incidence [6]: 0.6%
Net clinical benefit component: asymptomatic lower proximal deep vein thrombosis [7]: 104 (3.4%)
Net clinical benefit component: clinically relevant non-major bleeding [7]: 124 (4.1%)
Net clinical benefit component: death (pulmonary embolism cannot be excluded) [7]: 18 (0.6%)
Net clinical benefit component: death (pulmonary embolism) [7]: 1 (<0.1%)
Net clinical benefit component: major bleeding [7]: 43 (1.4%)
Net clinical benefit component: symptomatic deep vein thrombosis in lower extremity [7]: 13 (0.4%)
Net clinical benefit component: symptomatic non-fatal pulmonary embolism [7]: 10 (0.3%)
Net clinical benefit component: venous thromboembolism related death [7]: 19 (0.6%)
Net clinical benefit, any event, incidence [7]: 286 (9.4%)
Net clinical benefit, any event, incidence (Day 35 + 6, mITT Day 35 plus major and clinically relevant bleeds, listed as rivaroxaban): 9.4%
Relative risk (rivaroxaban/enoxaparin), primary efficacy composite [8]: 0.771
Relative risk reduction, primary efficacy composite [8]: 22.89%
Composite endpoint including all-cause mortality, incidence (Day 35, mITT Day 35 expanded): 8.6%
Relative risk, composite endpoint including all-cause mortality (Day 35, mITT Day 35 expanded): 0.931
Relative risk vs enoxaparin, subgroup (Day 35 mITT, active cancer): 1.340
Relative risk vs enoxaparin, subgroup (Day 35 mITT, acute infectious and inflammatory disease): 0.657
Relative risk vs enoxaparin, subgroup (Day 35 mITT, age subgroup 75 years): 0.624
Relative risk vs enoxaparin, subgroup (Day 35 mITT, subjects in Western Europe (including Australia, New Zealand, Israel)): 0.5
All-cause mortality, incidence (Day 90): 6.7%
Major vascular events, incidence (Day 90): 2.8%
Symptomatic VTE excluding VTE-related death, incidence (Day 90): 0.7%
Symptomatic VTE including death, incidence (Day 90): 1.7%
Relative risk reduction, primary efficacy composite [9]: 35.14%
Relative risk, primary efficacy composite [9]: 0.649
